“Also recorded” adds a separate entry of the source. Like-named read-outs stand apart in the source and are kept apart here.
Columns and labels:
α-glucosidase [1] = target: T1, α-glucosidase (Saccharomyces cerevisiae, UniProt P53341); conditions: cited from earlier work
α-amylase = system: α-amylase; design: method as in doi:10.1016/j.molstruc.2022.133650; conditions: at 108 μM; cited from earlier work
α-glucosidase [2] = target: T1, α-glucosidase; assay: α-glucosidase inhibition assay; assay type: biochemical
[3] = system: breast cancer cell line MCF-7; design: method as in PMID 30366316; conditions: cited from earlier work
α-glucosidase [4] = target: T1, α-glucosidase; assay: Enzyme kinetic studies (Lineweaver–Burk plot, secondary plot); assay type: biochemical; conditions: Km increased, Vmax unchanged
Method: A Lineweaver–Burk plot was generated to identify the type of inhibition and the Michaelis–Menten constant (Km) value was determined from the plot between the reciprocal of the substrate concentration (1/[S]) and reciprocal of enzyme rate (1/V) over various inhibitor concentrations. The experimental inhibitor constant (Ki) value was constructed by secondary plots of the inhibitor concentration [I] versus Km.

T1 sequence (P53341 whole entry): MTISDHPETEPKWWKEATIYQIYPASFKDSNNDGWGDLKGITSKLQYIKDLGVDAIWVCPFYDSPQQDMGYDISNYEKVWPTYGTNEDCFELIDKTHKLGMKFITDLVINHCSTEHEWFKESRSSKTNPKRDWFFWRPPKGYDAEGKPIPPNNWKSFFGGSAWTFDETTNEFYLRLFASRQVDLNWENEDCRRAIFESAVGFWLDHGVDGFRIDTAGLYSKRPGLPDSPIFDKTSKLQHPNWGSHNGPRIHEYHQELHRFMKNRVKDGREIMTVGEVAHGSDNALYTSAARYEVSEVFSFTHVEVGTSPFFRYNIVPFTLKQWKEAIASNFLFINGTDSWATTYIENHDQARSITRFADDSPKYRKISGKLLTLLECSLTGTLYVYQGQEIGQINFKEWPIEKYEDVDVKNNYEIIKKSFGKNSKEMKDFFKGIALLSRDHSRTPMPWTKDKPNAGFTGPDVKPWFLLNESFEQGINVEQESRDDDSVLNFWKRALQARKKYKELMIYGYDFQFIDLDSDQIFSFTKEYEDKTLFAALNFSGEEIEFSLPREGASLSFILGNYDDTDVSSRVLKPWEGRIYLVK

| melting point | Structure (SMILES) | also measured |
| --- | --- | --- |
| 199 to 201 °C | COc1cc(-c2nc3ccccc3c(=O)[nH]2)ccc1OCC(=O)Nc1ccc(C)cc1 [Compound 7i, 2-(2-methoxy-4-(4-oxo-3,4-dihydroquinazolin-2-yl)phenoxy)-N-(p-tolyl)acetamide] | – |
| 224 to 226 °C | COc1cc(-c2nc3ccccc3c(=O)[nH]2)ccc1OCC(=O)NCc1ccc(F)cc1 [Compound 7q, N-(4-fluorobenzyl)-2-(2-methoxy-4-(4-oxo-3,4-dihydroquinazolin-2-yl)phenoxy)acetamide] | – |
| 194 to 196 °C | COc1cc(-c2nc3ccccc3c(=O)[nH]2)ccc1OCC(=O)NCc1ccccc1 [Compound 7r, N-benzyl-2-(2-methoxy-4-(4-oxo-3,4-dihydroquinazolin-2-yl)phenoxy)acetamide] | – |
| – | O=C(Cn1cc(COc2ccc(-c3nc4ccccc4c(=O)[nH]3)cc2)nn1)Nc1ccccc1 [C] | type of inhibition (α-glucosidase [1]): competitive |
| – | COc1cc(-c2nc3ccccc3[nH]2)ccc1OCC(=O)Nc1ccc(F)cc1 [F] | % inhibition against α-amylase (α-amylase): 45.0 ± 0.8% |
| 203 to 205 °C | COc1cc(-c2nc3ccccc3c(=O)[nH]2)ccc1OCC(=O)Nc1ccc(Br)cc1 [Compound 7g, N-(4-bromophenyl)-2-(2-methoxy-4-(4-oxo-3,4-dihydroquinazolin-2-yl)phenoxy)acetamide] | – |
| 203 to 205 °C | COc1cc(-c2nc3ccccc3c(=O)[nH]2)ccc1OCC(=O)Nc1cccc(Cl)c1 [Compound 7e, N-(3-chlorophenyl)-2-(2-methoxy-4-(4-oxo-3,4-dihydroquinazolin-2-yl)phenoxy)acetamide] | – |
| – | COc1cc(-c2nc3ccccc3c(=O)[nH]2)ccc1OCC(=O)Nc1ccc(O)cc1 [Compound 7m, N-(4-hydroxyphenyl)-2-(2-methoxy-4-(4-oxo-3,4-dihydroquinazolin-2-yl)phenoxy)acetamide] | activity against α-glucosidase under the tested concentration (α-glucosidase [2]): did not show any activity |
| – | O=c1c2ccccc2nc(SCc2cn(Cc3ccc(Br)cc3)nn2)n1CCc1ccccc1 [B] | toxicity against breast cancer cell line MCF-7 [3]: no toxicity |
| 195 to 197 °C | CCc1ccc(NC(=O)COc2ccc(-c3nc4ccccc4c(=O)[nH]3)cc2OC)cc1 [Compound 7k, N-(4-ethylphenyl)-2-(2-methoxy-4-(4-oxo-3,4-dihydroquinazolin-2-yl)phenoxy)acetamide] | – |
| 217 to 219 °C | COc1cc(-c2nc3ccccc3c(=O)[nH]2)ccc1OCC(=O)Nc1ccc2ccccc2c1 [Compound 7o, 2-(2-methoxy-4-(4-oxo-3,4-dihydroquinazolin-2-yl)phenoxy)-N-(naphthalen-2-yl)acetamide] | – |
| 207 to 209 °C | COc1cc(-c2nc3ccccc3c(=O)[nH]2)ccc1OCC(=O)Nc1ccccc1Cl [Compound 7d, N-(2-chlorophenyl)-2-(2-methoxy-4-(4-oxo-3,4-dihydroquinazolin-2-yl)phenoxy)acetamide] | – |
| – | COc1cc(-c2nc3ccccc3c(=O)[nH]2)ccc1OCC(=O)Nc1ccc([N+](=O)[O-])cc1 [Compound 7n, 2-(2-methoxy-4-(4-oxo-3,4-dihydroquinazolin-2-yl)phenoxy)-N-(4-nitrophenyl)acetamide] | activity against α-glucosidase under the tested concentration (α-glucosidase [2]): did not show any activity |
| 222 to 225 °C | COc1cc(-c2nc3ccccc3c(=O)[nH]2)ccc1OCC(=O)Nc1ccccc1F [Compound 7b, N-(2-fluorophenyl)-2-(2-methoxy-4-(4-oxo-3,4-dihydroquinazolin-2-yl)phenoxy)acetamide] | type of inhibition (α-glucosidase [4]): competitive type; also recorded: competitive inhibition; also recorded: competitive inhibitor |
| 192 to 194 °C | COc1cc(-c2nc3ccccc3c(=O)[nH]2)ccc1OCC(=O)Nc1ccccc1 [Compound 7a, 2-(2-methoxy-4-(4-oxo-3,4-dihydroquinazolin-2-yl)phenoxy)-N-phenylacetamide] | – |
| 196 to 198 °C | COc1cc(-c2nc3ccccc3c(=O)[nH]2)ccc1OCC(=O)Nc1ccccc1C [Compound 7h, 2-(2-methoxy-4-(4-oxo-3,4-dihydroquinazolin-2-yl)phenoxy)-N-(o-tolyl)acetamide] | – |
| 205 to 207 °C | COc1ccc(NC(=O)COc2ccc(-c3nc4ccccc4c(=O)[nH]3)cc2OC)cc1 [Compound 7l, 2-(2-methoxy-4-(4-oxo-3,4-dihydroquinazolin-2-yl)phenoxy)-N-(4-methoxyphenyl)acetamide] | activity against α-glucosidase under the tested concentration (α-glucosidase [2]): did not show any activity |
| 211 to 213 °C | COc1cc(-c2nc3ccccc3c(=O)[nH]2)ccc1OCC(=O)Nc1ccc(Cl)cc1 [Compound 7f, N-(4-chlorophenyl)-2-(2-methoxy-4-(4-oxo-3,4-dihydroquinazolin-2-yl)phenoxy)acetamide] | – |
| 216 to 218 °C | COc1cc(-c2nc3ccccc3c(=O)[nH]2)ccc1OCC(=O)Nc1ccc(F)cc1 [Compound 7c, N-(4-fluorophenyl)-2-(2-methoxy-4-(4-oxo-3,4-dihydroquinazolin-2-yl)phenoxy)acetamide] | – |
| 215 to 217 °C | COc1cc(-c2nc3ccccc3c(=O)[nH]2)ccc1OCC(=O)Nc1c(C)cccc1C [Compound 7j, N-(2,6-dimethylphenyl)-2-(2-methoxy-4-(4-oxo-3,4-dihydroquinazolin-2-yl)phenoxy)acetamide] | – |
| 191 to 193 °C | COc1cc(-c2nc3ccccc3c(=O)[nH]2)ccc1OCC(=O)NCc1ccc(C)cc1 [Compound 7p, 2-(2-methoxy-4-(4-oxo-3,4-dihydroquinazolin-2-yl)phenoxy)-N-(4-methylbenzyl)acetamide] | – |
